# In publication PMC11134387, “Cancer-Stem-Cell Phenotype-Guided Discovery of a Microbiota-Inspired Synthetic Compound Targeting NPM1 for Leukemia” (JACS Au, 2024):
# Several values for one entry are separate records, joined by “and”; a condition that tells them apart may be missing. Identical values can stand only once. Entries after “also recorded” stand apart in the source; their conditions may differ.
# Experiments:
# NPM1 C-end C+ = biological target: T1, NPM1 C-end C+ (Homo sapiens, UniProt P06748); experiment: Isothermal titration calorimetry, NPM1 C-end C+; type: binding; conditions: ITC
# T1 construct: the C-end domain (residues 225- 294); 6xHis (N); made in house; host or cells: E. coli BL21(DE3)
# Description: (§1) To confirm a direct interaction of UCM-13369 with NPM1 and to address which domain of the protein would be responsible for binding the compound, pure protein samples of the pentameric N-end domain of NPM1, along with the C-terminal DNA-binding domains of WT and mutant NPM1 C+, were used in calorimetry assays. […] This is indicative of a lower diversity in the chemical environment of amide protons consistent with the previously reported protein unfolding.[29] […] On the other hand, the pentameric construct of the NPM1 N-end, which lacks the AML-related region, yielded a much lower binding affinity (KD ca. 100 μM range, Figure 3D).
# (§2) ITC experiments were performed in a Nano ITC Low Volume (TA Instruments) at 25 °C. […]
# (§3) The purity of the protein samples was checked by SDS–PAGE analysis (Figure S3) and protein quantification was performed using the Bradford protein assay.5 NPM molar concentration was expressed as the pentameric form for NPM1 WT N-end and as a monomer for NPM1 C-end WT and mutant. […]
# (§4) After extraction with acetonitrile and acidification, samples were desalted and concentrated with C18 tips. Mass spectra were recorded in a Hybrid Quadrupole-Orbitrap™ Mass Spectrometer (Thermo Scientific, Waltham, Massachusetts, USA)
# [1] = biological target: T2, NPM1 N-end (pentameric, WT) (Homo sapiens, UniProt P06748); experiment: Isothermal titration calorimetry, NPM1 N-end; type: binding; conditions: ITC, 25 °C
# T2 construct: N-end pentameric domain (residues 1- 130); 6xHis (N); made in house; host or cells: E. coli BL21(DE3)
# Description: as §1, §2, §3, §4
# [2] = system: human renal proximal tubule epithelial cells (hRPT Epi Cells); experiment: Dose-response viability in renal proximal tubule epithelial cells; type: cell-based; conditions: dose-response viability assay; listed as UCM-13369
# Description: Scale bar: 100 μm. (E ) Dose-response curve of UCM-13369 in human renal proximal
# [3] = system: primary CD34+ cells from AML patients; experiment: CFU-E colony-forming unit assay, AML patients; type: cell-based; conditions: Homo sapiens
# Experimental: Considering the inhibitory capacity of UCM-13369 on AML cell lines (shown in Figure 3A), the therapeutic potential was assessed in primary CD34+ cells from AML patients. Two ex vivo models were used from AML patients and healthy donors: CD34+ liquid HSC (hematopoietic stem cell) culture as a short-term model and CFU-E (colony-forming unit–erythroid) as a midterm model.
# The test compound was diluted in PBS. […]
# Primary cells. 1x10^6/mL total mononuclear bone marrow cells (as source of CD34+ HSCs) of healthy donors and AML patients were used. They were cultured using Stem SpanTM supplement with pencillin/streptomycin (500 U/ml), TPO (10 µg/mL), SCF (10 µg/mL), FLT3 (10 µg/mL), IL-6 (10 µg/mL) and IL-3 (10 µg/mL). After 24 h fresh medium was added. After 72 h in maintenance cells were ready to start the assays. All cells wer e maintained at 37 °C in a humidified incubator in an atmosphere of 5% CO2.
# Colonospheres, mamospheres and colony formation unit assays. 30.000 cells per well of MCF-7 cells (mamos pheres), HCT-116 cells (colonospheres) and CD34+ cells from patients (colony formation units) were seeded in serum free non- adherent medium or […]
# MethoCult (Stem Cell). […]
# T1 sequence (P06748 with tags, fused parts or gaps limits assumed): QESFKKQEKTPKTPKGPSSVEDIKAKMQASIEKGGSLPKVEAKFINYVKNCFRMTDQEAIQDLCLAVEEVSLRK
# T2 sequence (P06748 1-130): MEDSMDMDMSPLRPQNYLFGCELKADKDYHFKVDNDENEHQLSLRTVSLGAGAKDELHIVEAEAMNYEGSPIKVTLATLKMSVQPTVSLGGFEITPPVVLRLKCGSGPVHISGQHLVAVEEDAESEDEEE
compound,measurement,setting,value
"COc1ccc(C2Cc3[nH]c4ccccc4c3C(CCNCC3CC3)C2N)cc1 (centres unmarked) [4b, 4-{2-[(Cyclopropylmethyl)amino]ethyl}-2-(4-methoxyphenyl)-2,3,4,9-tetrahydro-1H-carbazol-3-amine]",Kd,"NPM1 C-end C+; 25 °C, NPM1 C-end C+",15 µM
same,Higher affinity of NPM1 C-end C+ than WT domain,NPM1 C-end C+; C+ variant vs WT domain,2 fold
same,Kd,[1],100 µM and ~100 µM
same,Toxicity in hRPT Epi Cells (in words),[2],showed toxicity in kidney cells; also recorded: revealed toxicity
same,IC50,[3],0.3 µM
